Results on 16 compounds are retold here after patent US20250215029A1 (Recludix Pharma, Inc., priority 2022, published 2025).

Read-outs that look alike come from different tables or passages of the source.

For experiment [1], the target named is T1, Recombinant STAT3 protein (STAT3 (G127-I722)) (Homo sapiens, UniProt P40763).
T1 construct: Recombinant STAT3 protein (STAT3 (G127-I722))
Put plainly: STAT3 Fluorescence Polarization (FP) Assay. Conditions: probe 5-FAM-GpYLPQTV-NH2 2 nM, 45-minute incubation. Format: binding. The gist of the method: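 In this competition FP format, STAT3 residues G127-I722 (25 nM) and 2 nM 5-FAM-GpYLPQTV-NH2 met test compounds for 45 min at room temperature. IC50 values result from fitting mP signal against log concentration by nonlinear regression.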
(In general: In fluorescence polarisation assays a small probe gives low polarisation when free and higher when bound to something large.)

Experiment [2] deals with T2, Recombinant STAT6 protein (STAT6 (W123-T658)) (Homo sapiens, UniProt P42226).
T2 construct: Recombinant STAT6 protein (STAT6 (W123-T658))
T2 sequence (P42226 123-658): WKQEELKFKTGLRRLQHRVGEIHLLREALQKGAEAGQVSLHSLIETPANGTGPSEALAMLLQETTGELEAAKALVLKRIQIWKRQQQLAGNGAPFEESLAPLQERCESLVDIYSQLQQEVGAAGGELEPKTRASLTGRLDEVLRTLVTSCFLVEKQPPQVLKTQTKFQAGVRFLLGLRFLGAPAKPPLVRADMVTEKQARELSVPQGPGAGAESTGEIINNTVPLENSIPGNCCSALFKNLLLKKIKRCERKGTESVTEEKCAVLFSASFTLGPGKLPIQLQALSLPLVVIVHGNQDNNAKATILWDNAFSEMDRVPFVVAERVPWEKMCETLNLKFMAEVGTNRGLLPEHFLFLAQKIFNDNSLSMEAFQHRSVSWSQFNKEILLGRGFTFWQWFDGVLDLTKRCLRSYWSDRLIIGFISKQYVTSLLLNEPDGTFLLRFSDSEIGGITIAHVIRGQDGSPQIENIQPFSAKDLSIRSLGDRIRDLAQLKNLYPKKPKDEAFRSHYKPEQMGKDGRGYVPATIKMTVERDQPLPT
Put plainly: STAT6 Fluorescence Polarization (FP) Assay. Format: binding. The settings on record: 45-minute incubation. An outline of the steps:
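Probe displacement format: serially diluted compounds incubated 45 min at room temperature with 2 nM fluorescent phosphopeptide and 250 nM STAT6 (W123-T658) in pH 7.4 HEPES buffer, 1% DMSO final. Polarization signal plotted against log concentration, IC50 fitted by nonlinear regression.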

Where [3] appears, read: STAT3 (G127-I722) 25 nM, read-out: STAT3 (FP assay IC50 class).
The mark [4] stands for this setting: STAT6 (W123-T658) 250 nM, probe 5-FAM-Ap[…]-NH2 2 nM, read-out: STAT6 (FP assay IC50 class).
Where [5] appears, read: STAT3 25 nM, read-out: STAT3 (FP assay IC50).
[6] abbreviates: STAT6 250 nM, probe 5-FAM-Ap[…]-NH2 2 nM, read-out: STAT6 (FP assay IC50).

T1 sequence (P40763 127-722): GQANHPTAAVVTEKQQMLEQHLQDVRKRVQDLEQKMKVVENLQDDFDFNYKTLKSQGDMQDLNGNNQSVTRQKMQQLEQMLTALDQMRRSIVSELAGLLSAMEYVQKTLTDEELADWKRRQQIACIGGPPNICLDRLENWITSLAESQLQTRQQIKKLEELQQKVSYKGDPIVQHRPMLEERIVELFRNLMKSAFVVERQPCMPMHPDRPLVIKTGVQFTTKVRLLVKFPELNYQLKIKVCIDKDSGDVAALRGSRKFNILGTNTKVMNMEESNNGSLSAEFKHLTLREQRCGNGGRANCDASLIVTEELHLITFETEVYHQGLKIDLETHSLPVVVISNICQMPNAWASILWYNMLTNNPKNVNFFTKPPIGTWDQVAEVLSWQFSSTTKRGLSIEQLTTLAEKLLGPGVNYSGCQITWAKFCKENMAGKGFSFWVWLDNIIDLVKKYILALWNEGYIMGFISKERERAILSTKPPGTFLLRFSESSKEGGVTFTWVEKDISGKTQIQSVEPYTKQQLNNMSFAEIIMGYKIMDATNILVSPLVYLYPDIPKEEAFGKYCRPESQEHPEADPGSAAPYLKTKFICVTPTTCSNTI

On to `C[C@@H]1C[C@H]2CC[C@@H](C(=O)N3CC(c4cnccc4F)C3)N2C(=O)[C@@H](NC(=O)c2cc3cc(C(F)P(=O)(O)O)ccc3s2)C1` (stereo partly drawn) [Compound 209, (fluoro(2-(((3S,6S,8S,9aR)-3-(3-(4-fluoropyridin-3-yl)azetidine-1-carbonyl)-8-methyl-5-oxooctahydro-1H-pyrrolo[1,2-a]azepin-6-yl)carbamoyl)benzo[b]thiophen-5-yl)methyl)phosphonic acid], for which the IC50 (as a rule, the concentration that inhibits the measured activity by half) in experiment [1] (setting [3]) was below 0.1 µM; in experiment [2] (setting [4]) it was 0.3 to 3 µM.

For the compound `CNc1c(F)cncc1C1CN(C(=O)[C@@H]2CC[C@@H]3CCC[C@H](NC(=O)c4cc5cc([C@H](F)P(=O)(O)O)ccc5s4)C(=O)N32)C1` (single isomer, unassigned) [Compound 703], the IC50 is below 0.1 µM in experiment [1] (setting [3]) and 3 to 30 µM in experiment [2] (setting [4]).

`CC1(c2ccccn2)CN(C(=O)[C@@H]2CC[C@@H]3CCC[C@H](NC(=O)c4cc5cc(C(F)(F)P(=O)(O)O)ccc5s4)C(=O)N32)C1` [Compound 547, (difluoro(2-(((3S,6S,9aS)-3-(3-methyl-3-(pyridin-2-yl)azetidine-1-carbonyl)-5-oxooctahydro-1H-pyrrolo[1,2-a]azepin-6-yl)carbamoyl)benzo[b]thiophen-5-yl)methyl)phosphonic acid]: the values for the 50% inhibitory concentration (IC50) in experiment [1] (setting [3]) and in experiment [2] (setting [4]) were below 0.1 µM and 0.3 to 3 µM, respectively.

Turning to `O=C(N[C@H]1CCC[C@H]2CC[C@@H](C(=O)N3CC(c4cnccc4N4C[C@H]5C[C@@H]4CO5)C3)N2C1=O)c1cc2cc(C(F)P(=O)(O)O)ccc2s1` (stereo partly drawn) [Compound 694, ((2-(((3S,6S,9aS)-3-(3-(4-((1R,4R)-2-oxa-5-azabicyclo[2.2.1]heptan-5-yl)pyridin-3-yl)azetidine-1-carbonyl)-5-oxooctahydro-1H-pyrrolo[1,2-a]azepin-6-yl)carbamoyl)benzo [b]thiophen-5-yl)fluoromethyl) phosphonic acid], the IC50 is below 0.1 µM in experiment [1] (setting [3]) and 0.3 to 3 µM in experiment [2] (setting [4]).

Turning to `N#CC1CN(c2ccncc2C2CN(C(=O)[C@@H]3CC[C@@H]4CCC[C@H](NC(=O)c5cc6cc(CP(=O)(O)O)ccc6s5)C(=O)N43)C2)C1` [Compound 680, ((2-(((3S,6S,9aS)-3-(3-(4-(3-cyanoazetidin-1-yl)pyridin-3-yl)azetidine-1-carbonyl)-5-oxooctahydro-1H-pyrrolo[1,2-a]azepin-6-yl)carbamoyl)benzo [b]thiophen-5-yl)methyl) phosphonic acid], the half-inhibitory concentration (IC50) in experiment [1] (setting [3]) is below 0.1 µM; in experiment [2] (setting [4]), 3 to 30 µM.

As to `N#CC1C(c2ccccc2)CN(C(=O)[C@@H]2CC[C@@H]3CCC[C@H](NC(=O)c4cc5cc(C(F)(F)P(=O)(O)O)ccc5s4)C(=O)N32)C12CC2` (stereo in doubt) [Compound 865, ((2-(((3S,6S,9aS)-3-((6S,7R)-7-cyano-6-phenyl-4-azaspiro[2.4]heptane-4-carbonyl)-5-oxooctahydro-1H-pyrrolo[1,2-a]azepin-6-yl)carbamoyl)benzo [b]thiophen-5-yl)difluoromethyl) phosphonic acid], the results for the IC50 in experiment [1] (setting [3]) and in experiment [2] (setting [4]) were 1 to 10 µM and at most 0.3 µM, respectively.

Turning to `CS(=O)(=O)CC1CN(C(=O)[C@@H]2CC[C@@H]3CCC[C@H](NC(=O)c4cc5cc(C(F)(F)P(=O)(O)O)ccc5s4)C(=O)N32)C1` [Compound 790, (difluoro(2-(((3S,6S,9aS)-3-(3-((methylsulfonyl)methyl)azetidine-1-carbonyl)-5-oxooctahydro-1H-pyrrolo[1,2-a]azepin-6-yl)carbamoyl)benzo [b]thiophen-5-yl)methyl) phosphonic acid], the IC50 was below 0.1 µM in experiment [1] (setting [3]) and 3 to 30 µM in experiment [2] (setting [4]).

`N#C[C@@H]1CN(C(=O)[C@@H]2CC[C@@H]3CCCC[C@H](NC(=O)c4cc5cc(C(F)(F)P(=O)(O)O)ccc5s4)C(=O)N32)C[C@H]1c1cccc(=O)[nH]1` (relative stereo) [Compound 867, ((2-(((3S,6S,10aS)-3-((rel-trans)-3-cyano-4-(6-oxo-1,6-dihydropyridin-2-yl)pyrrolidine-1-carbonyl)-5-oxodecahydropyrrolo [1,2-a]azocin-6-yl)carbamoyl)benzo [b]thiophen-5-yl)difluoromethyl) phosphonic acid]: the half-maximal inhibitory concentration (IC50) is 0.1 to 1 µM in experiment [1] (setting [3]) and at most 0.3 µM in experiment [2] (STAT6 (W123-T658) 250 nM, probe 5-FAM-ApYKPFQDLI-NH2 2 nM, read-out: STAT6 (FP assay IC50 class)).

On to `N#C[C@@H]1CN(C(=O)[C@@H]2CC[C@@H]3CCCC[C@H](NC(=O)c4ccc5ccc(C(F)(F)P(=O)(O)O)cc5c4)C(=O)N32)C[C@H]1c1cc[nH]c(=O)c1` (relative stereo) [Compound 83, ((7-(((3S,6S,10aS)-3-(rel-(trans)-3-cyano-4-(2-oxo-1,2-dihydropyridin-4-yl)pyrrolidine-1-carbonyl)-5-oxodecahydropyrrolo [1,2-a]azocin-6-yl)carbamoyl)naphthalen-2-yl)difluoromethyl) phosphonic acid], for which the values for the half-maximal inhibitory concentration (IC50) in experiment [1] (setting [5]) and in experiment [2] (setting [6]) were 0.1 to 1 µM and at most 0.3 µM, respectively.

For `COc1ccncc1C1CN(C(=O)[C@@H]2CC[C@@H]3CCC[C@H](NC(=O)c4cc5cc(C(F)P(=O)(O)O)ccc5s4)C(=O)N32)C1` (stereo partly drawn) [Compound 206, (fluoro(2-(((3S,6S,9aS)-3-(3-(4-methoxypyridin-3-yl)azetidine-1-carbonyl)-5-oxooctahydro-1H-pyrrolo[1,2-a]azepin-6-yl)carbamoyl)benzo[b]thiophen-5-yl)methyl)phosphonic acid], the half-inhibitory concentration (IC50) is below 0.1 µM in experiment [1] (setting [3]) and 3 to 30 µM in experiment [2] (setting [4]).

Regarding `O=C(N[C@H]1CCC[C@H]2CC[C@@H](C(=O)N3CC(c4cc(F)ccc4F)C3)N2C1=O)c1cc2cc(C(F)P(=O)(O)O)ccc2s1` (stereo partly drawn) [Compound 592, ((2-(((3S,6S,9aS)-3-(3-(2,5-difluorophenyl)azetidine-1-carbonyl)-5-oxooctahydro-1H-pyrrolo[1,2-a]azepin-6-yl)carbamoyl)benzo[b]thiophen-5-yl)fluoromethyl)phosphonic acid], the IC50 was in the range of 0.1 to 1 µM in experiment [1] (setting [3]) and 3 to 30 µM in experiment [2] (setting [4]).

`COc1cncc([C@H]2CN(C(=O)[C@@H]3CC[C@@H]4CCCC[C@H](NC(=O)c5cc6cc([C@H](F)P(=O)(O)O)ccc6s5)C(=O)N43)C3(CC3)[C@@H]2C#N)c1` (single isomer, unassigned) [Compound 848]: the values for the IC50 in experiment [1] (setting [3]) and in experiment [2] (setting [4]) were 1 to 10 µM and 0.3 to 3 µM, respectively.

Take `Cc1ncccc1C1CN(C(=O)[C@@H]2CC[C@@H]3CCC[C@H](NC(=O)c4cc5cc(C(F)(F)P(=O)(O)O)ccc5s4)C(=O)N32)C1` [Compound 775, (difluoro(2-(((3S,6S,9aS)-3-(3-(2-methylpyridin-3-yl)azetidine-1-carbonyl)-5-oxooctahydro-1H-pyrrolo[1,2-a]azepin-6-yl)carbamoyl)benzo [b]thiophen-5-yl)methyl) phosphonic acid]: the half-inhibitory concentration (IC50) was below 0.1 µM in experiment [1] (setting [3]) and 0.3 to 3 µM in experiment [2] (setting [4]).

Regarding `CN(C(=O)[C@@H]1CC[C@@H]2CCCC[C@H](NC(=O)c3cc4cc(C(F)(F)P(=O)(O)O)ccc4[nH]3)C(=O)N21)c1ccccc1` [Compound 1, (difluoro(2-(((3S,6S,10aS)-3-(methyl(phenyl)carbamoyl)-5-oxodecahydropyrrolo[1,2-a]azocin-6-yl)carbamoyl)-1H-indol-5-yl)methyl)phosphonic acid], the IC50 is above 10 µM in experiment [1] (setting [5]) and 0.3 to 3 µM in experiment [2] (setting [6]).

Consider `O=C(N[C@H]1CCC[C@H]2CC[C@@H](C(=O)N3CC(c4cccnc4)C3)N2C1=O)c1cc2cc(CP(=O)(O)O)ccc2s1` [Compound 78, ((2-(((3S,6S,9aS)-5-oxo-3-(3-(pyridin-3-yl)azetidine-1-carbonyl)octahydro-1H-pyrrolo[1,2-a]azepin-6-yl)carbamoyl)benzo[b]thiophen-5-yl)methyl) phosphonic acid], for which the values for the concentration for half-maximal inhibition (IC50) in experiment [1] (setting [5]) and in experiment [2] (setting [6]) were 0.1 to 1 µM and above 30 µM, respectively.

For `O=C(N[C@H]1CCCC[C@H]2CC[C@@H](C(=O)NC3CN(C(=O)OC4CC4)C3)N2C1=O)c1cc2cc(C(F)P(=O)(O)O)ccc2s1` (stereo partly drawn) [Compound 528, ((2-(((3S,6S,10aS)-3-((1-(cyclopropoxycarbonyl)azetidin-3-yl)carbamoyl)-5-oxodecahydropyrrolo[1,2-a]azocin-6-yl)carbamoyl)benzo[b]thiophen-5-yl)fluoromethyl)phosphonic acid], the concentration for half-maximal inhibition (IC50) in experiment [1] (setting [3]) was in the range of 1 to 10 µM; in experiment [2] (setting [4]), 0.3 to 3 µM.
